The source of these data is patent publication US20040006094A1, “4-pyrimidinamine derivatives, pharmaceutical compositions and related methods” (priority 2000, published 2004).

Test [1] has as its system differentiated P19 neurons. Nature of the test: Drug screening using differentiated P19 cell assay (neuroprotection against 3 mM glutamate and 1 mM glycine). Conditions: dose response 0.005-3 μM, >1 = no observed maximum within highest dose tested (3 μM). Format: cell-based, murine. On the procedure: Commercially available chemical libraries (BioFocus PLC, UK) were screened using the methods described herein. The stock concentration of the compounds was about 400 μM in DMSO. The concentration of compounds used in the primary screen was 1 μM. […] Columns 4-11 received compounds at the following final concentrations (μM): 3, 1.2, 0.48, 0.192, 0.077, 0.031, 0.012 and 0.005. Each row contained a different compound for confirmation. Only rows B-G received compounds, and rows A and H remained untreated.
Only the 4-pyrimidinamines are the subject of this invention, although limited data for 2-pyridinamines are presented as well. “% Inh” indicates the percentage of control cells surviving after 24 hours, and represents the neuroprotective effect of the compounds screened at 1 micromolar concentration. IC50 relate to data from dose response experiments. […] ND refers to compounds not tested in dose-response experiments.
The representative compounds listed in Tables IX<X, XI and XII were tested according to the procedure described in Example 5 with results as listed in Table XIII. Unless otherwise noted, molecular weights were measure on a Hewlitt-Packard Series 1050 Chemical Ionization mass spectrometer.

Test [2] relates to Male Wistar rats. Nature of the test: Transient model of cerebral ischemia in rats (lesion volume). The class given is in vivo, rat. Conditions: i.v., 1 hr post ischemia onset, 24 h, average of 12. The procedure: Male Wistar rats (Iffa Crédo, France), weighing 250-300 g, were housed 2 per cage under a light-dark cycle of 12 hr-12 hr (light on at 7:00 a.m., off at 7:00 p.m.) at a room temperature of 21±2° C., with 50±15% humidity, for a minimum of 5 days before the experiments. During this time, the rats had free access to commercial rat chow (Trouw Nutrition France, Vigny, France, ref. 811002) and tap water.
The animals were anaesthetized with 5% halothane in air for induction, then 1-2% halothane during surgery. The rat's body temperature was maintained at 37° C. with a heating pad. A 2 cm incision was made at the center of the neck and the right common carotid artery (CCA), external carotid artery (ECA) and internal carotid artery (ICA) were exposed under an operating microscope. The ICA was further dissected to identify the pterygopalatine artery (PA) branch and the intracranial ICA branch. The CCA was ligated. A 3-0 silk suture was tied at the origin of the ECA and ligated. A catheter (id=0.58 mm) was introduced into the CCA through a small puncture and advanced to the intracranial branch of the ICA. A 4-0 surgical nylon suture was introduced into the catheter. A length of approximately 19 mm of nylon suture was gently advanced from the CCA into the lumen of the ICA until the suture blocked the origin of the MCA. The suture was sealed into the catheter by heat, leaving 1 cm of catheter protruding so the suture could be withdrawn to allow reperfusion. The incision was closed using skin clips. Anaesthesia was then terminated and the animals were placed under heat lamps until recovery from anaesthesia. The rats awakened 10-15 min later. After 2 hr of ischemia, reperfusion was performed by withdrawal of the suture until the tip cleared the ICA lumen. Vehicle or test compound was administered intraperitoneally (i.p.) or intravenously (i.v.) at 1 hr post ischemia onset.
24 h after the onset of occlusion, the rats were killed by decapitation. The brains were immediately removed, frozen in isopentane and stored at −20° C. The brains were then cut in 20 μm thick sections in a cryocut. Every 20th slice was used to measure infarct area. The sections were stained with cresyl violet and the areas of infarct in the striatum and cortex were determined by planimetry using an image analysis software (Image, NIH) after digitalization of the section images.
Following the procedure described above, MK-801, compound #46 and compound #264 (as listed in the Tables herein) were evaluated for neuroprotective effects in rats with results as listed in Table VIII. The data represent average lesion volume in mm^3 for 12 measurements. Vehicle used was 15% solutol in 5% dextrose.

Test [3] has as its system P19 neurons. Briefly: P19 neuron viability / toxicity by Alamar blue fluorescence. Format: cell-based, murine. The procedure: Alamar Blue fluorescence, an indicator of cell viability, was used to determine cell viability after an NMDA-induced cytotoxic insult. […] However, since raw fluorescence counts vary from experiment to experiment, FIGS. 2A, 2B, and 2C are expressed as a percent of control.
Glutamate toxicity dose response in the presence of a constant 1 mM glycine concentration was measured in the differentiated P19 neurons. The curve generated through the data points is the average of 6 separate dose response curves. Data points are represented as the percent of control cells±standard error. % control=(([Glutamate]exp−[Glutamate]max)/(Controlvehicle−[Glutamate]max))×100.
The second method for measuring cell viability was a plate reader method. Cells plated into black 96 well plates (Packard viewplates) were loaded with 5% Alamar Blue dye (Biosource International). Alamar Blue is a dye that takes advantage of mitochondrial reductases to convert non-fluorescent resazurin to fluorescent resorufin (excitation 535 nm, emission 580 nm). Baseline fluorescence counts were read at room temperature in a Wallac plate reader immediately after addition of Alamar blue. Fluorescence counts of cell viability were taken the same way after 1 hour incubation at 37° C. Fluorescence was expressed as a percent of control, untreated cells after subtraction of background fluorescence. Live/dead cells were confirmed visually with a light microscope.
Cells were then assayed for Alamar blue fluorescence. The curve generated through the data points is the average of 3 separate dose response curves. Data points are represented as percent of control cells±standard error.
(In general: Alamar Blue is a resazurin reagent that responds to reducing activity.)

A word on the IC50: it is the point on the concentration scale where inhibition reaches its midpoint. A high value points to a need for much substance. In test [1], `CN(C)c1ccc(Nc2cc(-c3ccc4ccccc4c3)ncn2)cc1` [Cmpd 41] showed an IC50 of 0.54 µM. This lies in the sub-micromolar range. As to `CN(C)c1ccc(Nc2cc(-c3ccc(OCc4ccccc4)cc3)ncn2)cc1` [Cmpd 42, 1,4-benzenediamine, N^1,N^1-dimethyl-N^4-[6-[4-(phenylmethoxy)phenyl]-4-pyrimidinyl]-], half-maximal inhibition in test [1] (IC50) was put at 0.2 µM. In test [1] (Mus musculus, Neuron), `CN(C)c1ccc(Nc2cc(-c3cccc(-c4ccccc4)c3)ncn2)cc1` [Cmpd 43, 1,4-benzenediamine, N^1-(6-[1,1′-biphenyl]-3-yl-4-pyrimidinyl)-N^4,N^4-dimethyl-] came in with an IC50 of 0.22 µM. As to `CN(C)c1ccc(Nc2cc(-c3cc(C(F)(F)F)cc(C(F)(F)F)c3)ncn2)cc1` [Cmpd 44, 1,4-benzenediamine, N^1-[6-[3,5-bis(trifluoromethyl)phenyl]-4-pyrimidinyl]-N^4,N^4-dimethyl-], in test [1] (Mus musculus, Neuron), the IC50 was found to be 0.26 µM. Consider `CCN(CCO)c1ccc(Nc2cc(-c3ccc4ccccc4c3)ncn2)cc1` [Cmpd 45], for which, in test [1], the IC50 was determined as 0.57 µM. Turning to `CCN(CCO)c1ccc(Nc2cc(-c3cccc(-c4ccccc4)c3)ncn2)cc1` [Cmpd 46, ethanol, 2-[[4-[(6-[1,1′-biphenyl]-3-yl-4-pyrimidinyl)amino]phenyl]ethylamino]-], in test [2] (0.6 mg/kg), the “Cortex + Striatum Vol. (mm^3)” value is reported as 326.6 ± 26.0 mm^3, the “Cortex Vol. (mm^3)” value amounted to 247.6 ± 24.8 mm^3 and the “Striatum Vol. (mm^3)” value came out at 79.1 ± 3.0 mm^3. Moreover, in test [2] (3 mg/kg), the “Cortex + Striatum Vol. (mm^3)” value worked out at 290.8 ± 28.1 mm^3, the “Cortex Vol. (mm^3)” value is 214.7 ± 26.6 mm^3 and the “Striatum Vol. (mm^3)” value is 76.1 ± 2.8 mm^3. In addition, in test [1] (Mus musculus, Neuron), 0.07 µM corresponded to half-maximal inhibition (IC50).

As to `CCN(CCO)c1ccc(Nc2cc(-c3ccc(-c4ccccc4)cc3)ncn2)cc1` [Cmpd 47], the IC50 in test [1] (Mus musculus, Neuron) worked out at 0.49 µM. For the compound `CCN(CCO)c1ccc(Nc2cc(-c3cc(C(F)(F)F)cc(C(F)(F)F)c3)ncn2)cc1` [Cmpd 48], 0.48 µM corresponded to half-maximal inhibition in test [1] (IC50). In test [1] (Mus musculus, Neuron), `CCN(CCO)c1ccc(Nc2cc(-c3cccc([N+](=O)[O-])c3)ncn2)cc1` [Cmpd 49] yielded an IC50 of 0.55 µM. This lies in the sub-micromolar range. Consider `CCN(CCO)c1ccc(Nc2cc(-c3ccc(SC)cc3)ncn2)cc1` [Cmpd 50], for which the IC50 in test [1] (Mus musculus, Neuron) was determined as 0.41 µM.

The compound `CCN(CCO)c1ccc(Nc2cc(-c3ccc(OC(F)(F)F)cc3)ncn2)cc1` [Cmpd 51, ethanol, 2-[ethyl[4-[[6-[4-(trifluoromethoxy)phenyl]-4-pyrimidinyl]amino]phenyl]amino]-] registered an IC50 in test [1] (Mus musculus, Neuron) of 0.23 µM. As for `CCN(CCO)c1ccc(Nc2cc(C3C=C4C=CC=CC4O3)ncn2)cc1` (stereo not shown) [Cmpd 53], in test [1] (Mus musculus, Neuron), the IC50 is 0.54 µM. `CCN(CCO)c1ccc(Nc2cc(-c3cc4ccccc4s3)ncn2)cc1` [Cmpd 54, ethanol, 2-[[4-[(6-benzo[b]thien-2-yl-4-pyrimidinyl)amino]phenyl]ethylamino]-]: the IC50 in test [1] (Mus musculus, Neuron) worked out at 0.24 µM.

With `CCN(CCO)c1ccc(Nc2cc(-c3ccsc3)ncn2)cc1` [Cmpd 55], in test [1] (Mus musculus, Neuron), the IC50 is 0.86 µM.

In turn, `CCN(CCO)c1ccc(Nc2cc(-c3ccccc3Oc3ccccc3)ncn2)cc1` [Cmpd 56] had an IC50 in test [1] (Mus musculus, Neuron) of 0.57 µM. For `CCN(CCO)c1ccc(Nc2cc(-c3cnc(OCc4ccccc4)nc3OCc3ccccc3)ncn2)cc1` [Cmpd 58, 2-{[4-(2′,4′-is-benzyloxy-[4,5′]bipyrimidinyl-6-ylamino)-phenyl]-ethyl-amino}-ethanol], the IC50 in test [1] (Mus musculus, Neuron) came out at 0.39 µM. This IC50 and that of the compound before are within 1.5-fold of each other. Regarding `CN(C)c1ccc(Nc2cc(-c3cc4ccccc4o3)ncn2)cc1` [Cmpd 59], in test [1], half-maximal inhibition (IC50) required 0.48 µM.

With `CN(C)c1ccc(Nc2cc(-c3cccc4ccccc34)ncn2)cc1` [Cmpd 61], in test [1] (Mus musculus, Neuron), the IC50 is over 1 µM.

In the case of `CN(C)c1ccc(Nc2cc(-c3ccc(C#N)cc3)ncn2)cc1` [Cmpd 62], the IC50 in test [1] (Mus musculus, Neuron) was over 1 µM. Still for that read-out and setting: to `CN(C)c1ccc(Nc2cc(-c3ccccc3Oc3ccccc3)ncn2)cc1` [Cmpd 63] belongs over 1 µM; to `CCN(CCO)c1ccc(Nc2cc(-c3ccc(C#N)cc3)ncn2)cc1` [Cmpd 64], over 1 µM; to `Oc1ccc(-c2cc(Nc3ccc(N4CCN(c5ccccc5)CC4)cc3)ncn2)cc1` [Cmpd 65], over 1 µM.

As for `CCN(CCO)c1ccc(Nc2cc(-c3ccc(CNC(=O)OC(C)(C)C)cc3)ncn2)cc1` [Cmpd 147], the IC50 in test [1] (Mus musculus, Neuron) was found to be 1.09 µM. The compound `CCN(CCO)c1ccc(Nc2cc(-c3cccc(N(C)C)c3)ncn2)cc1` [Cmpd 148] returned an IC50 in test [1] (Mus musculus, Neuron) of 0.47 µM. Regarding `CN(C)c1ccc(Nc2cc(-c3ccc(N(C)C)cc3)ncn2)cc1` [Cmpd 149], in test [1] (Mus musculus, Neuron), 0.33 µM corresponded to half-maximal inhibition (IC50). As for `CCn1c2ccccc2c2ccc(Nc3cc(-c4ccc(OC)c(OC)c4)ncn3)cc21` [Cmpd 151], the IC50 in test [1] was over 1 µM. Compound `CCn1c2ccccc2c2ccc(Nc3cc(-c4cc(OC)c(OC)c(OC)c4)ncn3)cc21` [Cmpd 152] returned an IC50 in test [1] of over 1 µM. The compound `CCn1c2ccccc2c2ccc(Nc3cc(-c4ccc(N5CCN(C)CC5)cc4)ncn3)cc21` [Cmpd 154] showed an IC50 in test [1] of 0.55 µM. In general, EC50 refers to the midpoint of the concentration-response curve. For the compound `N[C@@H](CCC(=O)O)C(=O)O` [Glutamate], in test [3] (3 mM glutamate and 1 mM glycine for 24 hours), the “reduction in Alamar blue fluorescence” value is on record as 60%. Moreover, the EC50 in test [3] (constant 1 mM glycine, 24 hours, average of 6 curves, read-out: Glutamate toxicity EC50) turned out to be 8100 nM. `NCC(=O)O` [Glycine]: the “effect on basal P19 neuron viability, substance alone” value in test [3] (no inducer of toxicity (U0126: 10 μM)) was “did not affect P19 neuron viability”.
